What was measured:
Settings in all cases: 48 h
NOMO1 [1] = experiment: cell viability relative to DMSO control; higher = less cytotoxic
In short: (§1)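 Before seeding, each leukemia line was adapted for at least four passages in each medium. NOMO1 or SEM cells (500 cells/well) and P12-Ichikawa cells (1000 cells/well) went into 1536-well plates at 5 μl, then received library compounds in DMSO by pin dosing across 11 threefold concentrations, 47 μM to 0.79 nM. Readout was CellTiter-Glo One luminescence after 48 h at 37°C, and viability is given as a per-plate percentage of DMSO wells, with cell-free wells as background.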

P12-Ichikawa [2] = experiment: as above
In short: as §1

SEM cells [3] = experiment: as above
In short: as §1

NOMO1 [4] = experiment: AUC of viability dose-response curve (% viability x log10 dose units); higher = less sensitive
In short: (§2)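 Viability of medium-adapted leukemia cells was measured by CellTiter-Glo One luminescence after 48 h at 37°C with library compounds in DMSO. Doses were 11 threefold steps from 47 μM to 0.79 nM, in 1536-well plates at 500 or 1000 cells/well. Signals were normalised per plate to DMSO and cell-free wells and fitted with a four-parameter log-logistic model on log10 dose. Area under the curve was integrated by trapezoidal rule, with curves exceeding full viability scaled and failed quality-control curves removed.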

P12-Ichikawa [5] = experiment: as above
In short: as §2

SEM cells [6] = experiment: as above
In short: as §2

c1cc(N[C@@H]2CCNC2)nc(-c2cnc3ccc(-c4cn[nH]c4)cn23)c1
cell viability [%]
Settings | NOMO1 [1] | P12-Ichikawa [2] | SEM cells [3]
HPLM + 10% dialyzed FBS, 0.000781 µM | 133 | 116 | 105
HPLM + 10% dialyzed FBS, 0.00234 µM | 119 | 121 | 109
HPLM + 10% dialyzed FBS, 0.00702 µM | 124 | 122 | 136
HPLM + 10% dialyzed FBS, 0.0211 µM | 137 | 123 | 134
HPLM + 10% dialyzed FBS, 0.0632 µM | 134 | 131 | 106
HPLM + 10% dialyzed FBS, 0.19 µM | 139 | 130 | 98.6
HPLM + 10% dialyzed FBS, 0.569 µM | 127 | 135 | 81.5
HPLM + 10% dialyzed FBS, 1.71 µM | 128 | 136 | 78.8
HPLM + 10% dialyzed FBS, 5.12 µM | 132 | 132 | 74
HPLM + 10% dialyzed FBS, 15.4 µM | 102 | 120 | 76.5
HPLM + 10% dialyzed FBS, 46.1 µM | 91.9 | 104 | 67.2
RPMI 5 mM glucose + 10% FBS, 0.000781 µM | 116 | – | –
RPMI 5 mM glucose + 10% FBS, 0.00234 µM | 126 | – | –
RPMI 5 mM glucose + 10% FBS, 0.00702 µM | 124 | – | –
RPMI 5 mM glucose + 10% FBS, 0.0211 µM | 133 | – | –
RPMI 5 mM glucose + 10% FBS, 0.0632 µM | 137 | – | –
RPMI 5 mM glucose + 10% FBS, 0.19 µM | 125 | – | –
RPMI 5 mM glucose + 10% FBS, 0.569 µM | 120 | – | –
RPMI 5 mM glucose + 10% FBS, 1.71 µM | 125 | – | –
RPMI 5 mM glucose + 10% FBS, 5.12 µM | 128 | – | –
RPMI 5 mM glucose + 10% FBS, 15.4 µM | 111 | – | –
RPMI 5 mM glucose + 10% FBS, 46.1 µM | 100 | – | –

AUC of viability dose-response curve
Settings | NOMO1 [4] | P12-Ichikawa [5] | SEM cells [6]
HPLM + 10% dialyzed FBS | 460 | 471 | 386
RPMI 5 mM glucose + 10% FBS | 467 | 457 | 399
RPMI 5 mM glucose + 10% dialyzed FBS | 436 | 437 | 367

NCC/1=C/NC(=S)N1[C@H]2CCC3=C(F)C=C(F)C=C3C2
cell viability [%]
Settings | NOMO1 [1] | P12-Ichikawa [2] | SEM cells [3]
HPLM + 10% dialyzed FBS, 0.000781 µM | – | 127 | 102
HPLM + 10% dialyzed FBS, 0.00234 µM | – | 114 | 107
HPLM + 10% dialyzed FBS, 0.00702 µM | – | 114 | 110
HPLM + 10% dialyzed FBS, 0.0211 µM | – | 126 | 109
HPLM + 10% dialyzed FBS, 0.0632 µM | – | 123 | 93.3
HPLM + 10% dialyzed FBS, 0.19 µM | – | 121 | 102
HPLM + 10% dialyzed FBS, 0.569 µM | – | 119 | 105
HPLM + 10% dialyzed FBS, 1.71 µM | – | 121 | 120
HPLM + 10% dialyzed FBS, 5.12 µM | – | 113 | 99.5
HPLM + 10% dialyzed FBS, 15.4 µM | – | 111 | 94.5
HPLM + 10% dialyzed FBS, 46.1 µM | – | 92.5 | 43.8
RPMI 5 mM glucose + 10% FBS, 0.000781 µM | 106 | 134 | 118
RPMI 5 mM glucose + 10% FBS, 0.00234 µM | 108 | 125 | 122
RPMI 5 mM glucose + 10% FBS, 0.00702 µM | 105 | 124 | 123
RPMI 5 mM glucose + 10% FBS, 0.0211 µM | 102 | 120 | 119
RPMI 5 mM glucose + 10% FBS, 0.0632 µM | 112 | 129 | 112
RPMI 5 mM glucose + 10% FBS, 0.19 µM | 103 | 132 | 114
RPMI 5 mM glucose + 10% FBS, 0.569 µM | 124 | 139 | 120
RPMI 5 mM glucose + 10% FBS, 1.71 µM | 106 | 127 | 115
RPMI 5 mM glucose + 10% FBS, 5.12 µM | 101 | 121 | 115
RPMI 5 mM glucose + 10% FBS, 15.4 µM | 105 | 116 | 108
RPMI 5 mM glucose + 10% FBS, 46.1 µM | 79.4 | 92.5 | 15.4
RPMI 5 mM glucose + 10% dialyzed FBS, 0.000781 µM | – | 124 | –
RPMI 5 mM glucose + 10% dialyzed FBS, 0.00234 µM | – | 117 | –
RPMI 5 mM glucose + 10% dialyzed FBS, 0.00702 µM | – | 128 | –
RPMI 5 mM glucose + 10% dialyzed FBS, 0.0211 µM | – | 126 | –
RPMI 5 mM glucose + 10% dialyzed FBS, 0.0632 µM | – | 120 | –
RPMI 5 mM glucose + 10% dialyzed FBS, 0.19 µM | – | 120 | –
RPMI 5 mM glucose + 10% dialyzed FBS, 0.569 µM | – | 119 | –
RPMI 5 mM glucose + 10% dialyzed FBS, 1.71 µM | – | 119 | –
RPMI 5 mM glucose + 10% dialyzed FBS, 5.12 µM | – | 117 | –
RPMI 5 mM glucose + 10% dialyzed FBS, 15.4 µM | – | 110 | –
RPMI 5 mM glucose + 10% dialyzed FBS, 46.1 µM | – | 72.7 | –

AUC of viability dose-response curve
Settings | NOMO1 [4] | P12-Ichikawa [5] | SEM cells [6]
HPLM + 10% dialyzed FBS | 395 | 464 | 458
RPMI 5 mM glucose + 10% FBS | 470 | 463 | 453
RPMI 5 mM glucose + 10% dialyzed FBS | 466 | 462 | 456

Cc1cc(-c2ccc(CC(=O)Nc3ccc(-c4cccnc4)cc3)cc2)ccn1
cell viability [%]
Settings | NOMO1 [1] | P12-Ichikawa [2] | SEM cells [3]
HPLM + 10% dialyzed FBS, 0.000781 µM | – | 113 | 115
HPLM + 10% dialyzed FBS, 0.00234 µM | – | 113 | 112
HPLM + 10% dialyzed FBS, 0.00702 µM | – | 121 | 123
HPLM + 10% dialyzed FBS, 0.0211 µM | – | 115 | 118
HPLM + 10% dialyzed FBS, 0.0632 µM | – | 118 | 118
HPLM + 10% dialyzed FBS, 0.19 µM | – | 111 | 119
HPLM + 10% dialyzed FBS, 0.569 µM | – | 112 | 123
HPLM + 10% dialyzed FBS, 1.71 µM | – | 108 | 87.8
HPLM + 10% dialyzed FBS, 5.12 µM | – | 97.7 | 80.8
HPLM + 10% dialyzed FBS, 15.4 µM | – | 57.1 | 12.7
HPLM + 10% dialyzed FBS, 46.1 µM | – | 70.2 | 18.4
RPMI 5 mM glucose + 10% FBS, 0.000781 µM | 108 | 117 | 101
RPMI 5 mM glucose + 10% FBS, 0.00234 µM | 118 | 119 | 123
RPMI 5 mM glucose + 10% FBS, 0.00702 µM | 108 | 121 | 131
RPMI 5 mM glucose + 10% FBS, 0.0211 µM | 111 | 117 | 133
RPMI 5 mM glucose + 10% FBS, 0.0632 µM | 107 | 118 | 124
RPMI 5 mM glucose + 10% FBS, 0.19 µM | 110 | 132 | 129
RPMI 5 mM glucose + 10% FBS, 0.569 µM | 116 | 111 | 131
RPMI 5 mM glucose + 10% FBS, 1.71 µM | 96.4 | 106 | 112
RPMI 5 mM glucose + 10% FBS, 5.12 µM | 84.6 | 111 | 123
RPMI 5 mM glucose + 10% FBS, 15.4 µM | 54.3 | 89.9 | 24.5
RPMI 5 mM glucose + 10% FBS, 46.1 µM | 40.9 | 62.6 | 15.5
RPMI 5 mM glucose + 10% dialyzed FBS, 0.000781 µM | 119 | 112 | 113
RPMI 5 mM glucose + 10% dialyzed FBS, 0.00234 µM | 131 | 110 | 113
RPMI 5 mM glucose + 10% dialyzed FBS, 0.00702 µM | 124 | 111 | 126
RPMI 5 mM glucose + 10% dialyzed FBS, 0.0211 µM | 110 | 114 | 106
RPMI 5 mM glucose + 10% dialyzed FBS, 0.0632 µM | 134 | 119 | 110
RPMI 5 mM glucose + 10% dialyzed FBS, 0.19 µM | 103 | 108 | 124
RPMI 5 mM glucose + 10% dialyzed FBS, 0.569 µM | 106 | 104 | 128
RPMI 5 mM glucose + 10% dialyzed FBS, 1.71 µM | 110 | 106 | 112
RPMI 5 mM glucose + 10% dialyzed FBS, 5.12 µM | 91.8 | 96.3 | 104
RPMI 5 mM glucose + 10% dialyzed FBS, 15.4 µM | 55.8 | 69.1 | 21.7
RPMI 5 mM glucose + 10% dialyzed FBS, 46.1 µM | 41.7 | 55.7 | 16

AUC of viability dose-response curve
Settings | NOMO1 [4] | P12-Ichikawa [5] | SEM cells [6]
HPLM + 10% dialyzed FBS | 380 | 439 | 392
RPMI 5 mM glucose + 10% FBS | 420 | 447 | 418
RPMI 5 mM glucose + 10% dialyzed FBS | 413 | 438 | 413
